Here are results for 17 molecules from publication PMC9661473.

Where a SMILES comes first, the peptide text is derived from it.

Data set [1] relates to 2N3M (DNA, aptamer) TGGTGGTGGTTGTTGTGGTGGTGGTGGT
As to the kind of experiment: microscale thermophoresis. The note with it: 100 mM KCl; 25 mM potassium phosphate, pH 7.05, 25 °C, 200 nM aptamer.

For data set [2], the system named is DNA TA (DNA, aptamer) GGTTGGTGTGGTTGG
Put plainly: microscale thermophoresis. The note with it: 100 mM KCl; 25 mM PBS, pH 7.05, 25 °C, 200 nM aptamer. In general terms: In MST a laser heats a spot of the sample, and binding alters the fluorescence response.

The subject of data set [3] is 2N3M (DNA, aptamer) TGGTGGTGGTTGTTGTGGTGGTGGTGGT
Put plainly: microscale thermophoresis, Hill fit. The note with it: 100 mM KCl; 25 mM potassium phosphate, pH 7.05, 25 °C, 200 nM aptamer.

Data set [4] has as its system DNA TA (DNA, aptamer) GGTTGGTGTGGTTGG
Put plainly: microscale thermophoresis, Hill fit. The note with it: 100 mM KCl; 25 mM PBS, pH 7.05, 25 °C, 200 nM aptamer.

Data set [5] concerns DNA TA (unlabeled, NMR) (DNA, aptamer) GGTTGGTGTGGTTGG
Put plainly: 1H 1D and 2D NOESY NMR. The note with it: 100 mM KCl; 25 mM potassium phosphate, pH 7.4, 298 K, 10% D2O, 500 μM DNA, 2 equiv YER.

Data set [6] deals with RNA TA (RNA, aptamer) GGUUGGUGUGGUUGG
Put plainly: microscale thermophoresis, Hill fit. The note with it: 100 mM KCl; 25 mM PBS, pH 7.05, 40 °C, 200 nM aptamer.

The target of data set [7] is T1, YER tripeptide (thrombin loop fragment) (UniProt P00734 434-436).
T1 chain: YER
As to the kind of experiment: MST; 100 mM KCl, 40 C; MST: 200 nM FAM-oligo; 25 mM PBS pH 7.05, 100 mM KCl (DNA TA 25 C, RNA TA 40 C) or 25 mM K-phosphate pH 7.05, 100 mM KCl (2N3M, 25 C), Hill fit; NMR: 500 uM DNA TA, 25 mM K-phosphate pH 7.4, 100 mM KCl, 10% D2O, 298 K. The note with it: label: 5'-FAM; intramolecular G-quadruplex (modelled).

Data set [8] has as its target T2, QET tripeptide (RET analogue) (UniProt P19338 604-606, R604Q).
T2 chain: QET
Put plainly: MST; 100 mM KCl, 25 C; MST: 200 nM FAM-oligo; 25 mM PBS pH 7.05, 100 mM KCl (DNA TA 25 C, RNA TA 40 C) or 25 mM K-phosphate pH 7.05, 100 mM KCl (2N3M, 25 C), Hill fit; NMR: 500 uM DNA TA, 25 mM K-phosphate pH 7.4, 100 mM KCl, 10% D2O, 298 K. The note with it: label: 5'-FAM; intramolecular G-quadruplex.

The target of data set [9] is T3, REV tripeptide (RET analogue) (UniProt P19338 604-606, T606V).
T3 chain: REV
Described as above. The note with it: label: 5'-FAM; intramolecular G-quadruplex.

The target in data set [10] is T4, RET tripeptide (nucleolin loop fragment) (UniProt P19338 604-606).
T4 chain: RET
The data set is described as above. The note with it: label: 5'-FAM; intramolecular G-quadruplex.

In data set [11] the target is T1, YER tripeptide (thrombin loop fragment). Described as above. The note with it: label: 5'-FAM; intramolecular G-quadruplex.
Another data set deals with T5, YE dipeptide (UniProt P00734 434-435).
T5 chain: YE
Described as above. The note with it: label: 5'-FAM; intramolecular G-quadruplex.

Another data set has as its target T6, ER dipeptide (UniProt P00734 435-436).
T6 chain: ER
Described as above. The note with it: label: 5'-FAM; intramolecular G-quadruplex.

For data set [12], the target named is T7, RYE tripeptide (thrombin loop fragment) (UniProt P00734 433-435).
T7 chain: RYE
The description is as above. The note with it: label: 5'-FAM; intramolecular G-quadruplex.

In data set [13] the target is T8, ERN tripeptide (thrombin loop fragment) (UniProt P00734 435-437).
T8 chain: ERN
The description is as above. The note with it: label: 5'-FAM; intramolecular G-quadruplex.

As for `C[C@@H](O)[C@H](N)C(=O)O`, the binding result in [1] is recorded as “no”.

On to `N=C(N)NCCC[C@H](N)C(=O)O`, for which the binding entry in data set [2] and in [1] was “no” in each case.

On to `N[C@@H](CCC(=O)O)C(=O)O`, for which the binding result in [2] and in data set [1] was “no” in each case. For `N[C@@H](Cc1ccc(O)cc1)C(=O)O`, in data set [2], the binding result was “no”. Usually Kd stands for the equilibrium constant for the complex coming apart. High values mean lower affinity, low ones higher affinity. Turning to `C[C@@H](O)[C@H](NC(=O)[C@H](CCC(=O)O)NC(=O)[C@@H](N)CCCNC(=N)N)C(=O)O` (H-Arg-Glu-Thr-OH), the equilibrium dissociation constant (Kd) in data set [3] was 0.1 ± 0.02 µM. This lies in the sub-micromolar range. As for `CC(C)[C@H](NC(=O)[C@H](CCC(=O)O)NC(=O)[C@@H](N)CCCNC(=N)N)C(=O)O` (H-Arg-Glu-Val-OH), the binding result in [1] is “no”. `N=C(N)NCCC[C@H](N)C(=O)N[C@@H](Cc1ccc(O)cc1)C(=O)N[C@@H](CCC(=O)O)C(=O)O` (H-Arg-Tyr-Glu-OH) yielded a Kd in data set [4] of 52 ± 5 µM.

For the molecule `C[C@@H](O)[C@H](NC(=O)[C@H](CCC(=O)O)NC(=O)[C@@H](N)CCC(N)=O)C(=O)O` (H-Gln-Glu-Thr-OH), the binding entry in data set [1] is “no”. In the case of `N=C(N)NCCC[C@H](NC(=O)[C@@H](N)CCC(=O)O)C(=O)N[C@@H](CC(N)=O)C(=O)O` (H-Glu-Arg-Asn-OH), the Kd in data set [4] was found to be 12 ± 1 µM.

On to `N=C(N)NCCC[C@H](NC(=O)[C@@H](N)CCC(=O)O)C(=O)O` (H-Glu-Arg-OH), for which, in data set [2], the binding result is recorded as “no”. On to `NC(N)=NCCC[C@H](NC(=O)[C@H](CCC(=O)O)NC(=O)[C@@H](N)Cc1ccccc1)C(=O)O` (H-Phe-Glu-Arg-OH), for which the binding entry in data set [2] is listed as “no”. As for `N=C(N)NCCC[C@H](NC(=O)[C@H](CCC(=O)O)NC(=O)[C@@H](N)Cc1ccc(O)cc1)C(=O)O` (H-Tyr-Glu-Arg-OH), the binding entry in [5] is listed as “yes”. The figures for the Kd in [4] and in [6] were 5 ± 1 µM and 37 ± 9 µM, respectively.

As to `NCCCC[C@H](NC(=O)[C@H](CCC(=O)O)NC(=O)[C@@H](N)Cc1ccc(O)cc1)C(=O)O` (H-Tyr-Glu-Lys-OH), the binding entry in [2] was “no”. Take `N[C@@H](Cc1ccc(O)cc1)C(=O)N[C@@H](CCC(=O)O)C(=O)O` (H-Tyr-Glu-OH): in [2], the binding entry was “no”.

B1: RNA TA (FAM) (structured_RNA)
RNA: GGUUGGUGUGGUUGG
Turning to B1, the Kd in [7] came to 37 ± 9 µM.

B2: 2N3M (AS1411 derivative, FAM) (structured_DNA)
DNA: TGGTGGTGGTTGTTGTGGTGGTGGTGGT
As for B2, the binding result in data set [8] and in data set [9] was “no binding” in each case. In data set [10], this molecule had a Kd of 0.1 ± 0.02 µM.

B3: DNA TA (FAM) (structured_DNA)
DNA: GGTTGGTGTGGTTGG
With B3, the results for the Kd in data set [11], in data set [12] and in [13] were 5 ± 1 µM, 52 ± 5 µM and 12 ± 1 µM, respectively. The binding result with YE dipeptide and with ER dipeptide was “no binding” in each case.
